# Measured values as given in patent publication US11324725B2, “Compositions and methods for the inhibition of pruritus” (The United States of America, as represented by the …, priority 2017, dated 2022).
# “Also recorded” adds a separate entry of the source.
# Biological target: T1, hNpr2 (Homo sapiens, UniProt P20594)
# T1 sequence (P20594 23-1047): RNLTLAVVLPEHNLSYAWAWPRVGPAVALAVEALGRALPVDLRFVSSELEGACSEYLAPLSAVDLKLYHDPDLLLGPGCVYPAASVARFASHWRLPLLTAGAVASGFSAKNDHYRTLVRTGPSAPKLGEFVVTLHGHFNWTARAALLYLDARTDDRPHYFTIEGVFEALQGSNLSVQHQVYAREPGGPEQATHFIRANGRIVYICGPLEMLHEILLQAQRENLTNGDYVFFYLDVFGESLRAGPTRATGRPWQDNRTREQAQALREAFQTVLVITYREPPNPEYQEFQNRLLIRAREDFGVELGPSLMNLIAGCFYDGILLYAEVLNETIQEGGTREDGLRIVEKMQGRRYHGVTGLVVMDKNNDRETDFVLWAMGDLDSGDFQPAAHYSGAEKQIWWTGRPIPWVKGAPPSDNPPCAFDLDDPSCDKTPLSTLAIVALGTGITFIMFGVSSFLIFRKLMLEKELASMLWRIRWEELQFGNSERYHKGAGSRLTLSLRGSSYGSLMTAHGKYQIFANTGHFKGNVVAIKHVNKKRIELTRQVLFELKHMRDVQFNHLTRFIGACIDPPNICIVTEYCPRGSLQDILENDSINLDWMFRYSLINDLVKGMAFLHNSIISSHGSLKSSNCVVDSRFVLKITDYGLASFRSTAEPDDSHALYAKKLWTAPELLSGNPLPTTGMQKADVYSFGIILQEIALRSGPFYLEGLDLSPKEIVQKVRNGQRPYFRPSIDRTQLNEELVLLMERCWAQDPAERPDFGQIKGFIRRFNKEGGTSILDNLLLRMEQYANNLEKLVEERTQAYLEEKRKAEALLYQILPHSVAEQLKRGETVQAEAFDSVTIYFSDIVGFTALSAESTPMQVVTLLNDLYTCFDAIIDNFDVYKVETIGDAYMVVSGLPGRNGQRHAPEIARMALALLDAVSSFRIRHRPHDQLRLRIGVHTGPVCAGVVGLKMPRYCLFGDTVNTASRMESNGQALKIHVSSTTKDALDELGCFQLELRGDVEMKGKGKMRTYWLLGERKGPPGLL
# Test: Counter-screen, Nppc-stimulated HEK-hNpr2-cGMP-sensor cells
# Format: cell-based
# Conditions: for IC50 / Imax: 1 nM Nppc-stimulated; for Imax: read-out: Imax, HEK-hNpr2-cGMP-sensor cells, −100% = no agonist; for Inhibition of Nppc-induced hNpr2 activity (in words): HEK-hNpr2-cGMP-sensor cells
# Description: In order to identify small molecular compounds that inhibit the Npr1 receptor a high-throughput assay to probe inhibition of the receptor guanylate cyclase Npr1 was developed. The assay was designed taking advantage of Promega's GloSensor™ technology (Promega, Madison, Wis.). This technology involves the expression of a cyclic guanosine monophosphate (cGMP) biosensor, comprised of a firefly luciferase variant that was coupled to the cGMP binding domain of human phosphodiesterase 5A, and loading of cells with a cell-permeable luciferase substrate to monitor cGMP production by Npr1 in real time in live cells. Briefly, human embryonic kidney 293 cells stably expressing the human Npr1 and the pGloSensor™-40F cGMP vector (“pGloSensor™-40F”) were generated. Stimulating these cells with the Npr1 agonists human NppA or NppB, luciferase-induced light production could be detected in a dose-dependent manner. HEK293 cells stably expressing human Npr2 and pGS-40F and cells only expressing pGS-40F were also generated to conduct secondary counter screens. In these cells, NppC or sodium nitroprusside were used to stimulate Npr2 or soluble guanylate cyclase which is endogenously expressed in HEK293 cells, respectively. The Npr2-NppC counter screen was employed to search for agents that minimally effected this agonist-receptor interaction. The Npr2-NppC system was used because the side effects of most drugs occur on related receptors. Npr1 and Npr2 are the most related receptors in sequence and function and there are no additional active receptor subtypes in this family of receptors. The procedure is described in detail below.
# Counter-screens were performed with HEK293-hNpr2-cGMP-sensor and HEK293-cGMP-sensor cells. These cells were stimulated with 1 nM NppC or 50 μM sodium nitroprusside, respectively, but otherwise the assay was conducted as described for HEK-hNpr1-cGMP-sensor cells. Pre-agonist controls were the same for all three assays, but normalization of post-agonist data differed between assays. For HEK-hNpr1-cGMP-sensor cells, −100% activity in post-agonist data was defined as described for primary screening, while for HEK-hNpr2-cGMP-sensor and HEK-cGMP-sensor cells, the average signal of DMSO-treated wells with 2% GloSensor™ reagent and the respective agonist was defined as 0% and the average signal of wells without agonist as −100% activity and data were normalized accordingly. Compounds directly interacting with the pGloSensor™-40F reporter system in HEK293 cells stimulated with sodium nitroprusside were eliminated as false positives. Effects of compounds on HEK293 cells stimulated with NppC and stably expressing hNpr2 and pGS-40F were tested for receptor selectivity.
SMILES,IC50 [µM],Imax [%],Inhibition of Nppc-induced hNpr2 activity (in words)
"Cl.O=C1Nc2ccccc2CN(CC2CCCCC2)C12CCNCC2 [JS-1, 4-(cyclohexylmethyl)-4,5-dihydrospiro[benzo[e][1,4]diazepine-3,4′-piperidin]-2(1H)-one hydrochloride]",7.2 ± 1.3,-106 ± 8,–
"O=C(Cc1ccc(Cl)cc1)N1Cc2ccccc2CC2(CCCN2CC2CCNC2)C1 (stereo not shown) [JS-2, 2-(4-chlorophenyl)-1-(1′-(pyrrolidin-3-ylmethyl)-1,5-dihydrospiro[benzo[c]azepine-4,2′-pyrrolidin]-2(3H)-yl)ethan-1-one]",6.4 ± 1.1,-88 ± 5,–
"CCC(CC)c1cc([C@H]2CN3CC[C@H]2C[C@@H]3CNS(=O)(=O)c2cccs2)nc(-c2ccncc2)n1 [JS-3, N-(((2R,4S,5R)-5-(6-(pentan-3-yl)-2-(pyridin-4-yl)pyrimidin-4-yl)quinuclidin-2-yl)methyl)thiophene-2-sulfonamide]",17 ± 20,-126 ± 23,–
"COc1cc(CN2CCC(C)(NC(C)=O)CC2)cc(-c2ccncc2)c1 [JS-4, N-(1-(3-methoxy-5-(pyridin-4-yl)benzyl)-4-methylpiperidin-4-yl)acetamide]",11 ± 1.2,-100 ± 5,–
"Cc1noc(C)c1-c1cc(-c2ccccc2Oc2ccccc2)cn2cncc12 [JS-5, 3,5-dimethyl-4-(6-(2-phenoxyphenyl)imidazo[1,5-a]pyridin-8-yl)isoxazole]",12 ± 1.1,-97 ± 4,inhibited hNpr2 with similar potency to hNpr1; also recorded: antagonizes natriuretic peptide-induced activation
"COc1ccccc1-c1n[nH]c2ncc(C(=O)NCc3cccnc3)nc12 [JS-6, 3-(2-methoxyphenyl)-N-(pyridin-3-ylmethyl)-1H-pyrazolo[3,4-b]pyrazine-5-carboxamide]",6.9 ± 1.1,-102 ± 3,–
"O=C(NCc1cccnc1)c1cnc2[nH]nc(-c3ccccc3)c2n1 [JS-7, 3-phenyl-N-(pyridin-3-ylmethyl)-1H-pyrazolo[3,4-b]pyrazine-5-carboxamide]",16 ± 1.3,-122 ± 11,–
"Cc1nn2c(c1-c1ccccc1OCc1ccccc1)N(C(=O)Cc1ccc3c(c1)OCO3)CCC2 [JS-8, 2-(benzo[d][1,3]dioxol-5-yl)-1-(3-(2-(benzyloxy)phenyl)-2-methyl-6,7-dihydropyrazolo[1,5-a]pyrimidin-4(5H)-yl)ethan-1-one]",9.1 ± 1.4,-127 ± 13,inhibited hNpr2 with similar potency to hNpr1; also recorded: antagonizes natriuretic peptide-induced activation
"Cc1nn2c(c1-c1ccccc1OCc1ccccc1)N(C(=O)Cc1ccccn1)CCC2 [JS-9, 1-(3-(2-(benzyloxy)phenyl)-2-methyl-6,7-dihydropyrazolo[1,5-a]pyrimidin-4(5H)-yl)-2-(pyridin-2-yl)ethan-1-one]",20 ± 16,-102 ± 16,–
"Cc1nn2c(c1-c1ccccc1Oc1ccccc1)N(C(=O)Cc1ccc3c(c1)OCO3)CCC2 [JS-10, 2-(benzo[d][1,3]dioxol-5-yl)-1-(2-methyl-3-(2-phenoxyphenyl)-6,7-dihydropyrazolo[1,5-a]pyrimidin-4(5H)-yl)ethan-1-one]",5.4 ± 1.4,-86 ± 5,–
"Cc1cc(CNC(=O)c2ccc3c(c2)n(CC2CC2)c(=O)n3C2CCCCC2)on1 [JS-11, 1-cyclohexyl-3-(cyclopropylmethyl)-N-((3-methylisoxazol-5-yl)methyl)-2-oxo-2,3-dihydro-1H-benzo[d]imidazole-5-carboxamide]",5 ± 1.1,-97 ± 4,inhibited hNpr2 with similar potency to hNpr1; also recorded: antagonizes natriuretic peptide-induced activation
"COc1ccc(C2(C(=O)N3CCC4(CC3)c3nccn3-c3ccccc3CN4C)CC2)cc1 [JS-12, (1-(4-methoxyphenyl)cyclopropyl)(5-methyl-5,6-dihydrospiro[benzo[f]imidazo[1,2-a][1,4]diazepine-4,4′-piperidin]-1′-yl)methanone]",5.7 ± 1.1,-96 ± 4,–
"N#Cc1ccccc1CN1CCCC(C(=O)NCc2ccccc2)CCNC(=O)CC1 (stereo not shown) [JS-13, N-benzyl-1-(2-cyanobenzyl)-4-oxo-1,5-diazacycloundecane-8-carboxamide]",5.9 ± 1.3,-108 ± 8,–
"CN(Cc1ccccc1)C(=O)c1cn2ccnc(-c3ccccc3)c2n1 [JS-14, N-benzyl-N-methyl-8-phenylimidazo[1,2-a]pyrazine-2-carboxamide]",20 ± 1.1,-91 ± 8,–
